From US20260085077A1, “HETEROCYCLIC DERIVATIVES AS JANUS KINASE INHIBITORS” (CHIESI FARMACEUTICI S.P.A., priority 2022, published 2026)

Tested on: IL-13 induced pSTAT6 in BEAS-2B human cell line
Assay: Inhibition of IL-13 induced pSTAT6 in BEAS
Format: cell-based
Conditions: IL-13 induced pSTAT6, BEAS-2B cells, ELISA
Method: BEAS-2B human cell line was seeded (100.000 cells/well) and incubated for 48 h at 37° C., 5% CO2, 95% humidity. Compounds were added and incubated 30 min followed by IL-13 as trigger. After 30 min incubation, cells were lysed and pSTAT6 determined by Fastscan phospho-stat6 (Tyr641) sandwich ELISA kit (cell signaling). Inhibitors were tested at 11 consecutive […] dilutions starting from 10 μM (10 μM-40 pM) in duplicate. Calculation of IC50 data, curves and QC analysis were made using Excel tools and GraphPadPrism software. QC criteria parameters: Z′≥0.35, Hill Slope range 0.5 to 5, S:B>2.

**Q.** For `COc1cc2c(cc1-n1nc(C)c3cnc(-c4cnn5cccnc45)cc31)S(=O)(=O)CCN2` [Example 8, 6-methoxy-7-(3-methyl-6-(pyrazolo[1,5-a]pyrimidin-3-yl)-1H-pyrazolo[4,3-c]pyridin-1-yl)-3,4-dihydro-2H-benzo[b][1,4]thiazine 1,1-dioxide], which IC50 is on record?
**A.** 5.01 to 50.1 nM

**Q.** Which IC50 does the source give for `COc1cc2c(cc1-n1nc(C)c3cnc(-c4cnn5cccnc45)cc31)CN(S(C)(=O)=O)C2` [Example 2, 1-(6-methoxy-2-(methylsulfonyl)isoindolin-5-yl)-3-methyl-6-(pyrazolo[1,5-a]pyrimidin-3-yl)-1H-pyrazolo[4,3-c]pyridine] here?
**A.** 5.01 to 50.1 nM

**Q.** `COc1cc2c(cc1-n1nc(C(=O)NCCN3CCC(OC)CC3)c3cnc(-c4cnn5cccnc45)cc31)OCCN2` [Example 46, 1-(6-methoxy-3,4-dihydro-2H-benzo[b][1,4]oxazin-7-yl)-N-(2-(4-methoxypiperidin-1-yl)ethyl)-6-(pyrazolo[1,5-a]pyrimidin-3-yl)-1H-pyrazolo[4,3-c]pyridine-3-carboxamide] was tested. Which IC50 did it give?
**A.** < 5.01 nM

**Q.** For `COc1cc2c(cc1-n1nc(C)c3cnc(-c4cnn5cccnc45)cc31)CC(=O)N2` [Example 10, 6-methoxy-5-(3-methyl-6-(pyrazolo[1,5-a]pyrimidin-3-yl)-1H-pyrazolo[4,3-c]pyridin-1-yl)indolin-2-one], which IC50 is on record?
**A.** 5.01 to 50.1 nM

**Q.** `COc1cc2c(cc1-n1nc(NC(=O)OCCN3CC[C@@H](OC)C3)c3cnc(-c4cnn5cccnc45)cc31)SCCN2` [Example 35, (R)-2-(3-methoxypyrrolidin-1-yl)ethyl (1-(6-methoxy-3,4-dihydro-2H-benzo[b][1,4]thiazin-7-yl)-6-(pyrazolo[1,5-a]pyrimidin-3-yl)-1H-pyrazolo[4,3-c]pyridin-3-yl)carbamate] was tested. Which IC50 did it give?
**A.** 5.01 to 50.1 nM

**Q.** With `COc1cc2c(cc1-n1nc(NCCN(C)C)c3cnc(-c4cnn5cccnc45)cc31)OCCN2` [Example 54, N1-(1-(6-methoxy-3,4-dihydro-2H-benzo[b][1,4]oxazin-7-yl)-6-(pyrazolo[1,5-a]pyrimidin-3-yl)-1H-pyrazolo[4,3-c]pyridin-3-yl)-N2,N2-dimethylethane-1,2-diamine] as the compound, how does the IC50 read?
**A.** 5.01 to 50.1 nM

**Q.** For `COc1cc2c(cc1-n1nc(C)c3cnc(-c4cnn5cccnc45)cc31)CN(C)C(=O)N2` [Example 12, 7-methoxy-3-methyl-6-(3-methyl-6-(pyrazolo[1,5-a]pyrimidin-3-yl)-1H-pyrazolo[4,3-c]pyridin-1-yl)-3,4-dihydroquinazolin-2(1H)-one], which IC50 is on record?
**A.** 50.1 to 501 nM

**Q.** For `COc1cc2c(cc1-n1nc(NC(=O)OCCCN3CCN(C)CC3)c3cnc(-c4cnn5cccnc45)cc31)OCCN2` [Example 59, 3-(4-methylpiperazin-1-yl)propyl (1-(6-methoxy-3,4-dihydro-2H-benzo[b][1,4]oxazin-7-yl)-6-(pyrazolo[1,5-a]pyrimidin-3-yl)-1H-pyrazolo[4,3-c]pyridin-3-yl)carbamate], which IC50 is on record?
**A.** 5.01 to 50.1 nM

**Q.** With `COc1cc2c(cc1-n1nc(C(=O)NCCN3CCCC4(COC4)C3)c3cnc(-c4cnn5cccnc45)cc31)OCCN2` [Example 49, N-(2-(2-oxa-6-azaspiro[3.5]nonan-6-yl)ethyl)-1-(6-methoxy-3,4-dihydro-2H-benzo[b][1,4]oxazin-7-yl)-6-(pyrazolo[1,5-a]pyrimidin-3-yl)-1H-pyrazolo[4,3-c]pyridine-3-carboxamide] as the compound, how does the IC50 read?
**A.** 5.01 to 50.1 nM

**Q.** `COc1cc2c(cc1-n1nc(C)c3cnc(-c4cnn5cccnc45)cc31)CCC(=O)N2` [Example 4, 7-methoxy-6-(3-methyl-6-(pyrazolo[1,5-a]pyrimidin-3-yl)-1H-pyrazolo[4,3-c]pyridin-1-yl)-3,4-dihydroquinolin-2(1H)-one] was tested. Which IC50 did it give?
**A.** 5.01 to 50.1 nM

**Q.** Which IC50 does the source give for `COc1cc2c(cc1-n1nc(C(=O)NCCN3CCC4(CCOC4=O)CC3)c3cnc(-c4cnn5cccnc45)cc31)OCCN2` [Example 52, 1-(6-methoxy-3,4-dihydro-2H-benzo[b][1,4]oxazin-7-yl)-N-(2-(1-oxo-2-oxa-8-azaspiro[4.5]decan-8-yl)ethyl)-6-(pyrazolo[1,5-a]pyrimidin-3-yl)-1H-pyrazolo[4,3-c]pyridine-3-carboxamide] here?
**A.** < 5.01 nM

**Q.** Which IC50 does the source give for `COc1cc2c(cc1-n1nc(C)c3cnc(-c4cnn5cccnc45)cc31)CCN2` [Example 41, 1-(6-methoxyindolin-5-yl)-3-methyl-6-(pyrazolo[1,5-a]pyrimidin-3-yl)-1H-pyrazolo[4,3-c]pyridine] here?
**A.** 5.01 to 50.1 nM

**Q.** How did the IC50 turn out when `COc1cc2c(cc1-n1nc(C)c3cnc(-c4cnn5cccnc45)cc31)SCCN2` [Example 6, 6-methoxy-7-(3-methyl-6-(pyrazolo[1,5-a]pyrimidin-3-yl)-1H-pyrazolo[4,3-c]pyridin-1-yl)-3,4-dihydro-2H-benzo[b][1,4]thiazine] was run?
**A.** < 5.01 nM

**Q.** How did the IC50 turn out when `COc1cc2c(cc1-n1nc(NC(=O)N(C)C)c3cnc(-c4cnn5cccnc45)cc31)SCCN2` [Example 36, 3-(1-(6-methoxy-3,4-dihydro-2H-benzo[b][1,4]thiazin-7-yl)-6-(pyrazolo[1,5-a]pyrimidin-3-yl)-1H-pyrazolo[4,3-c]pyridin-3-yl)-1,1-dimethylurea] was run?
**A.** < 5.01 nM

**Q.** With `COc1cc2c(cc1-n1nc(C(=O)NCCN3CC4(CCOCC4)C3)c3cnc(-c4cnn5cccnc45)cc31)OCCN2` [Example 48, N-(2-(7-oxa-2-azaspiro[3.5]nonan-2-yl)ethyl)-1-(6-methoxy-3,4-dihydro-2H-benzo[b][1,4]oxazin-7-yl)-6-(pyrazolo[1,5-a]pyrimidin-3-yl)-1H-pyrazolo[4,3-c]pyridine-3-carboxamide] as the compound, how does the IC50 read?
**A.** < 5.01 nM

**Q.** For `COc1cc2c(cc1-n1nc(NC(=O)NCCCN3CCOCC3)c3cnc(-c4cnn5cccnc45)cc31)OCCN2` [Example 70, 1-(1-(6-methoxy-3,4-dihydro-2H-benzo[b][1,4]oxazin-7-yl)-6-(pyrazolo[1,5-a]pyrimidin-3-yl)-1H-pyrazolo[4,3-c]pyridin-3-yl)-3-(3-morpholinopropyl)urea], which IC50 is on record?
**A.** 5.01 to 50.1 nM

**Q.** With `COc1cc2c(cc1-n1nc(C(=O)NC[C@@H]3CN(C)CCO3)c3cnc(-c4cnn5cccnc45)cc31)OCCN2` [Example 45, (R)-1-(6-methoxy-3,4-dihydro-2H-benzo[b][1,4]oxazin-7-yl)-N-((4-methylmorpholin-2-yl)methyl)-6-(pyrazolo[1,5-a]pyrimidin-3-yl)-1H-pyrazolo[4,3-c]pyridine-3-carboxamide] as the compound, how does the IC50 read?
**A.** 5.01 to 50.1 nM

**Q.** How did the IC50 turn out when `COc1cc2c(cc1-n1nc(C(=O)NCCN3CCC(C4(O)COC4)CC3)c3cnc(-c4cnn5cccnc45)cc31)OCCN2` [Example 85, N-(2-(4-(3-hydroxyoxetan-3-yl)piperidin-1-yl)ethyl)-1-(6-methoxy-3,4-dihydro-2H-benzo[b][1,4]oxazin-7-yl)-6-(pyrazolo[1,5-a]pyrimidin-3-yl)-1H-pyrazolo[4,3-c]pyridine-3-carboxamide] was run?
**A.** 5.01 to 50.1 nM

**Q.** `COc1cc2c(cc1-n1nc(C(=O)NCCCN3CCC(F)(F)CC3)c3cnc(Nc4ncc[nH]c4=O)cc31)OCCN2` [Example 76, N-(3-(4,4-difluoropiperidin-1-yl)propyl)-1-(6-methoxy-3,4-dihydro-2H-benzo[b][1,4]oxazin-7-yl)-6-((3-oxo-3,4-dihydropyrazin-2-yl)amino)-1H-pyrazolo[4,3-c]pyridine-3-carboxamide] was tested. Which IC50 did it give?
**A.** 5.01 to 50.1 nM

**Q.** For `COc1cc2c(cc1-n1nc(C(=O)NCCN3CCC4(CC3)COC(=O)C4)c3cnc(-c4cnn5cccnc45)cc31)OCCN2` [Example 51, 1-(6-methoxy-3,4-dihydro-2H-benzo[b][1,4]oxazin-7-yl)-N-(2-(3-oxo-2-oxa-8-azaspiro[4.5]decan-8-yl)ethyl)-6-(pyrazolo[1,5-a]pyrimidin-3-yl)-1H-pyrazolo[4,3-c]pyridine-3-carboxamide], which IC50 is on record?
**A.** < 5.01 nM

**Q.** Which IC50 does the source give for `COc1cc2c(cc1-n1nc(NC(=O)OCCN3CCN(C)CC3)c3cnc(-c4cnn5cccnc45)cc31)OCCN2` [Example 63, 2-(4-methylpiperazin-1-yl)ethyl (1-(6-methoxy-3,4-dihydro-2H-benzo[b][1,4]oxazin-7-yl)-6-(pyrazolo[1,5-a]pyrimidin-3-yl)-1H-pyrazolo[4,3-c]pyridin-3-yl)carbamate] here?
**A.** 5.01 to 50.1 nM

**Q.** With `COc1cc2c(cc1-n1nc(NC(=O)O[C@@H]3CCN(C)C3)c3cnc(-c4cnn5cccnc45)cc31)SCCN2` [Example 32, (R)-1-methylpyrrolidin-3-yl (1-(6-methoxy-3,4-dihydro-2H-benzo[b][1,4]thiazin-7-yl)-6-(pyrazolo[1,5-a]pyrimidin-3-yl)-1H-pyrazolo[4,3-c]pyridin-3-yl)carbamate] as the compound, how does the IC50 read?
**A.** 5.01 to 50.1 nM

**Q.** How did the IC50 turn out when `COc1cc2c(cc1-n1nc(NC(=O)OCCN(C)C)c3cnc(-c4cnn5cccnc45)cc31)SCCN2` [Example 28, 2-(dimethylamino)ethyl (1-(6-methoxy-3,4-dihydro-2H-benzo[b][1,4]thiazin-7-yl)-6-(pyrazolo[1,5-a]pyrimidin-3-yl)-1H-pyrazolo[4,3-c]pyridin-3-yl)carbamate] was run?
**A.** < 5.01 nM

**Q.** For `CN(C)CCCNC(=O)c1nn(-c2cc3c(cc2OC(F)F)NCCO3)c2cc(-c3cnn4cccnc34)ncc12` [Example 78, 1-(6-(difluoromethoxy)-3,4-dihydro-2H-benzo[b][1,4]oxazin-7-yl)-N-(3-(dimethylamino)propyl)-6-(pyrazolo[1,5-a]pyrimidin-3-yl)-1H-pyrazolo[4,3-c]pyridine-3-carboxamide], which IC50 is on record?
**A.** 5.01 to 50.1 nM

**Q.** For `COc1cc2c(cc1-n1nc(C(=O)NCCN3CCC(C(N)=O)CC3)c3cnc(-c4cnn5cccnc45)cc31)OCCN2` [Example 79, N-(2-(4-carbamoylpiperidin-1-yl)ethyl)-1-(6-methoxy-3,4-dihydro-2H-benzo[b][1,4]oxazin-7-yl)-6-(pyrazolo[1,5-a]pyrimidin-3-yl)-1H-pyrazolo[4,3-c]pyridine-3-carboxamide], which IC50 is on record?
**A.** 50.1 to 501 nM

**Q.** With `COc1cc2c(cc1-n1nc(NC(=O)OC[C@@H]3CN(C)CCO3)c3cnc(-c4cnn5cccnc45)cc31)OCCN2` [Example 65, (S)-(4-methylmorpholin-2-yl)methyl (1-(6-methoxy-3,4-dihydro-2H-benzo[b][1,4]oxazin-7-yl)-6-(pyrazolo[1,5-a]pyrimidin-3-yl)-1H-pyrazolo[4,3-c]pyridin-3-yl)carbamate] as the compound, how does the IC50 read?
**A.** 5.01 to 50.1 nM
